pKi: −log10 of the molar value.
Target: T1, Cdc7 (BEV coexpressed huCDC7/DBF4) (Homo sapiens, UniProt O00311)
T1 construct: made in house; host or cells: BEV (baculovirus expression vector) co-expression; insect cells are implied but no cell line is named
Assay: Cdc7 enzyme inhibition assay ([33P]ATP, biotinylated peptide substrate, FlashPlate)
Format: biochemical
Details: Table 3; enzyme inhibition data (Ki)
Method: Cdc7 (BEV coexpressed huCDC7/DBF4) is prepared internally. Cdc7 assays are conducted as follows with final concentrations as listed. […] Reactions are quenched after 1 hr by the addition of 90 μL stop buffer (50 mM EDTA, 2M NaCl). […] (Ki) for exemplary compounds.

T1 sequence (O00311 whole entry): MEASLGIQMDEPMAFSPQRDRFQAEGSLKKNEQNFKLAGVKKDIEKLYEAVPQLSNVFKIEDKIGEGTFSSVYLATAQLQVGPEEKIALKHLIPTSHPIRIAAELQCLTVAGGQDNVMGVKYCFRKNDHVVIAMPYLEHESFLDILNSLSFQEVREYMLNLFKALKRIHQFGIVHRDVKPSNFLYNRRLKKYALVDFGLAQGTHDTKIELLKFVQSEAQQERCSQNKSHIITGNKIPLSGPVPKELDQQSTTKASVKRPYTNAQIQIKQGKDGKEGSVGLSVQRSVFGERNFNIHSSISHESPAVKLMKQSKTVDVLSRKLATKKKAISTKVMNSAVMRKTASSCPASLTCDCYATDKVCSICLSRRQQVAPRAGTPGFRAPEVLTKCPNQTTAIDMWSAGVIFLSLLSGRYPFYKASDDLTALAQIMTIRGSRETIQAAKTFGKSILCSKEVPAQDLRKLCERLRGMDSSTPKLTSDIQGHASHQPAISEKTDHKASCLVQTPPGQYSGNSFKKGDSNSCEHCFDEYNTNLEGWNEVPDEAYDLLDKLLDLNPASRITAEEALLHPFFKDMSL
T1 sequence (Q9UBU7 whole entry partner): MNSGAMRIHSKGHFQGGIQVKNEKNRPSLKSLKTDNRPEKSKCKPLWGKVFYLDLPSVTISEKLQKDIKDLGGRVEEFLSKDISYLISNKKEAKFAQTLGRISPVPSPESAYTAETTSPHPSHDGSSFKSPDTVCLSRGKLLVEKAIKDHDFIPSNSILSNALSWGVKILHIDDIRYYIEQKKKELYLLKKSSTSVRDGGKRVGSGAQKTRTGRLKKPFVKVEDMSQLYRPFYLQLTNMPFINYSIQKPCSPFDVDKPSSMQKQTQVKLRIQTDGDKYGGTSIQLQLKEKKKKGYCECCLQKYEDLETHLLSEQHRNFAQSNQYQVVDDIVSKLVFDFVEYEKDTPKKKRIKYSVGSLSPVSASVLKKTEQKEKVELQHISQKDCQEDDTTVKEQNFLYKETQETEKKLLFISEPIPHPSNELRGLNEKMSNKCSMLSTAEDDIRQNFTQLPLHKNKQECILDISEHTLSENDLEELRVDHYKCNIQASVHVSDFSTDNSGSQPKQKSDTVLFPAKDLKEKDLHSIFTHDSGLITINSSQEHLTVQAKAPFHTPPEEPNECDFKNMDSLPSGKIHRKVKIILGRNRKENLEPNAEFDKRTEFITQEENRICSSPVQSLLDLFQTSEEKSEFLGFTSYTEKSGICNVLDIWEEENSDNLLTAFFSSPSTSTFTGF

pKi | SMILES
> 8.00 | COc1cnc2[nH]cc(-c3cc(Cl)nc(NC4CCCC(NS(=O)(=O)c5cccs5)C4)c3)c2c1 (centres unmarked) [Example 262, N-(3-{[6-chloro-4-(5-methoxy-1H-pyrrolo[2,3-b]pyridin-3-yl)pyridin-2-yl]amino}cyclohexyl)thiophene-2-sulfonamide]
> 8.00 | COc1cnc2[nH]cc(-c3cc(Cl)nc(NC4CCCC(NC(=O)CN5CCCC5)C4)c3)c2c1 (centres unmarked) [Example 263, N-(3-{[6-chloro-4-(5-methoxy-1H-pyrrolo[2,3-b]pyridin-3-yl)pyridin-2-yl]-amino}cyclohexyl)-2-(pyrrolidin-1-yl)acetamide]
> 8.00 | Clc1cc(-c2c[nH]c3ncccc23)nc(NCC2CCCO2)n1 (centres unmarked) [Example 265, 4-chloro-6-(1H-pyrrolo[2,3-b]pyridin-3-yl)-N-(tetrahydrofuran-2-ylmethyl)pyrimidin-2-amine]
> 8.00 | Clc1cc(-c2c[nH]c3ncccc23)nc(NCc2ccncc2)n1 [Example 266, 4-chloro-N-(pyridin-4-ylmethyl)-6-(1H-pyrrolo[2,3-b]pyridin-3-yl)pyrimidin-2-amine]
> 8.00 | Clc1cc(-c2c[nH]c3ncccc23)nc(NCc2cccnc2)n1 [Example 267, 4-chloro-N-(pyridin-3-ylmethyl)-6-(1H-pyrrolo[2,3-b]pyridin-3-yl)pyrimidin-2-amine]
> 8.00 | Clc1cc(-c2c[nH]c3ncccc23)nc(NCc2ccccn2)n1 [Example 268, 4-chloro-N-(pyridin-2-ylmethyl)-6-(1H-pyrrolo[2,3-b]pyridin-3-yl)pyrimidin-2-amine]
> 8.00 | CN(C)c1nc(Cl)cc(-c2c[nH]c3ncccc23)n1 [Example 269, 4-chloro-N,N-dimethyl-6-(1H-pyrrolo[2,3-b]pyridin-3-yl)pyrimidin-2-amine]
> 8.00 | O=C(N[C@H]1CC[C@H](Nc2nc(Cl)cc(-c3c[nH]c4ncccc34)n2)CC1)C1CC1 [Example 271, N-(trans-4-{[4-chloro-6-(1H-pyrrolo[2,3-b]pyridin-3-yl)pyrimidin-2-yl]amino}cyclohexyl)cyclopropanecarboxamide]
> 8.00 | O=C(NC1CCCC(Nc2nc(Cl)cc(-c3c[nH]c4ncccc34)n2)C1)C1CC1 (centres unmarked) [Example 272, N-(3-{[4-chloro-6-(1H-pyrrolo[2,3-b]pyridin-3-yl)pyrimidin-2-yl]amino}cyclohexyl)cyclopropanecarboxamide]
> 8.00 | Clc1cc(-c2c[nH]c3ncccc23)nc(NC2CCCC(NC3CCC3)C2)n1 (centres unmarked) [Example 274, N-[4-chloro-6-(1H-pyrrolo[2,3-b]pyridin-3-yl)pyrimidin-2-yl]-N′-cyclobutylcyclohexane-1,3-diamine]
> 8.00 | Clc1cc(-c2c[nH]c3ncccc23)nc(N[C@H]2CC[C@H](NC3CCC3)CC2)n1 [Example 275, trans-N-[4-chloro-6-(1H-pyrrolo[2,3-b]pyridin-3-yl)pyrimidin-2-yl]-N′-cyclobutylcyclohexane-1,4-diamine]
> 8.00 | COCCNc1nc(Cl)cc(-c2c[nH]c3ncccc23)n1 [Example 279, 4-chloro-N-(2-methoxyethyl)-6-(1H-pyrrolo[2,3-b]pyridin-3-yl)pyrimidin-2-amine]
> 8.00 | O=C(Nc1ccccc1)N[C@H]1CC[C@H](Nc2nc(Cl)cc(-c3c[nH]c4ncccc34)n2)CC1 [Example 281, 1-(trans-4-{[4-chloro-6-(1H-pyrrolo[2,3-b]pyridin-3-yl)pyrimidin-2-yl]amino}cyclohexyl)-3-phenylurea]
> 8.00 | O=S(=O)(N[C@H]1CC[C@H](Nc2nc(Cl)cc(-c3c[nH]c4ncccc34)n2)CC1)C1CC1 [Example 282, N-(trans-4-{[4-chloro-6-(1H-pyrrolo[2,3-b]pyridin-3-yl)pyrimidin-2-yl]amino}cyclohexyl)cyclopropanesulfonamide]
> 8.00 | Cc1noc(C)c1S(=O)(=O)NC1CCC(Nc2cc(-c3c[nH]c4ncccc34)cc(Cl)n2)CC1 (centres unmarked) [Example 283, N-(4-{[6-chloro-4-(1H-pyrrolo[2,3-b]pyridin-3-yl)pyridin-2-yl]amino}cyclohexyl)-3,5-dimethyl-1,2-oxazole-4-sulfonamide]
> 8.00 | COC[C@H](Cc1ccccc1)Nc1cc(-c2c[nH]c3ncccc23)cc(Cl)n1 [Example 284, 6-chloro-N-[(2S)-1-methoxy-3-phenylpropan-2-yl]-4-(1H-pyrrolo[2,3-b]pyridin-3-yl)pyridin-2-amine]
7.00 to 8.00 | Clc1cc(-c2c[nH]c3ncccc23)cc(NC2CCCC(NC3CCCC3)C2)n1 (centres unmarked) [Example 285, N-[6-chloro-4-(1H-pyrrolo[2,3-b]pyridin-3-yl)pyridin-2-yl]-N′-cyclopentylcyclohexane-1,3-diamine]
> 8.00 | CCOC(=O)CNC(=O)NC1CCC(Nc2cc(-c3c[nH]c4ncccc34)cc(Cl)n2)CC1 (centres unmarked) [Example 286, ethyl N-[(4-{[6-chloro-4-(1H-pyrrolo[2,3-b]pyridin-3-yl)pyridin-2-yl]amino}cyclohexyl)carbamoyl]glycinate]

pKi | SMILES
> 8.00 | CC(C)NC(=O)NC1CCC(Nc2cc(-c3c[nH]c4ncccc34)cc(Cl)n2)CC1 (centres unmarked) [Example 287, 1-(4-{[6-chloro-4-(1H-pyrrolo[2,3-b]pyridin-3-yl)pyridin-2-yl]amino}cyclohexyl)-3-propan-2-ylurea]
> 8.00 | CC(C)(C)NC(=O)NC1CCC(Nc2cc(-c3c[nH]c4ncccc34)cc(Cl)n2)CC1 (centres unmarked) [Example 288, 1-tert-butyl-3-(4-{[6-chloro-4-(1H-pyrrolo[2,3-b]pyridin-3-yl)pyridin-2-yl]amino}cyclohexyl)urea]
> 8.00 | COCC(=O)NC1CCC(Nc2cc(-c3c[nH]c4ncccc34)cc(Cl)n2)CC1 (centres unmarked) [Example 289, N-(4-{[6-chloro-4-(1H-pyrrolo[2,3-b]pyridin-3-yl)pyridin-2-yl]amino}cyclohexyl)-2-methoxyacetamide]
> 8.00 | Clc1cc(-c2c[nH]c3ncccc23)cc(NC2CCCC(NCc3nccs3)C2)n1 (centres unmarked) [Example 290, N-[6-chloro-4-(1H-pyrrolo[2,3-b]pyridin-3-yl)pyridin-2-yl]-N′-(1,3-thiazol-2-ylmethyl)cyclohexane-1,3-diamine]
> 8.00 | Clc1cc(-c2c[nH]c3ncccc23)cc(NC2CCCC(NCc3cccc(CN4CCCCC4)c3)C2)n1 (centres unmarked) [Example 291, N-[6-chloro-4-(1H-pyrrolo[2,3-b]pyridin-3-yl)pyridin-2-yl]-N′-[3-(piperidin-1-ylmethyl)benzyl]cyclohexane-1,3-diamine]
> 8.00 | CCOCC(=O)NC1CCCC(Nc2cc(-c3c[nH]c4ncccc34)cc(Cl)n2)C1 (centres unmarked) [Example 292, N-(3-{[6-chloro-4-(1H-pyrrolo[2,3-b]pyridin-3-yl)pyridin-2-yl]amino}cyclohexyl)-2-ethoxyacetamide]
> 8.00 | O=C(COc1ccccc1)NC1CCCC(Nc2cc(-c3c[nH]c4ncccc34)cc(Cl)n2)C1 (centres unmarked) [Example 293, N-(3-{[6-chloro-4-(1H-pyrrolo[2,3-b]pyridin-3-yl)pyridin-2-yl]amino}cyclohexyl)-2-phenoxyacetamide]
> 8.00 | O=C(NC1CCCC(Nc2cc(-c3c[nH]c4ncccc34)cc(Cl)n2)C1)c1cnccn1 (centres unmarked) [Example 294, N-(3-{[6-chloro-4-(1H-pyrrolo[2,3-b]pyridin-3-yl)pyridin-2-yl]amino}cyclohexyl)pyrazine-2-carboxamide]
> 8.00 | O=C(NC1CCCC(Nc2cc(-c3c[nH]c4ncccc34)cc(Cl)n2)C1)C1CCN1 (centres unmarked) [Example 295, N-(3-{[6-chloro-4-(1H-pyrrolo[2,3-b]pyridin-3-yl)pyridin-2-yl]amino}cyclohexyl)azetidine-2-carboxamide]
> 8.00 | CC(C)(C)OC(=O)N1CCC1C(=O)NC1CCCC(Nc2cc(-c3c[nH]c4ncccc34)cc(Cl)n2)C1 (centres unmarked) [Example 296, tert-butyl 2-[(3-{[6-chloro-4-(1H-pyrrolo[2,3-b]pyridin-3-yl)pyridin-2-yl]amino}cyclohexyl)carbamoyl]azetidine-1-carboxylate]
> 8.00 | C=CCNC(=O)NC1CCC(Nc2cc(-c3c[nH]c4ncccc34)cc(Cl)n2)CC1 (centres unmarked) [Example 297, 1-(4-{[6-chloro-4-(1H-pyrrolo[2,3-b]pyridin-3-yl)pyridin-2-yl]amino}cyclohexyl)-3-prop-2-en-1-ylurea]
> 8.00 | Cn1cnc(S(=O)(=O)NCC(C)(C)CNc2cc(-c3c[nH]c4ncccc34)cc(Cl)n2)c1 [Example 298, N-(3-{[6-chloro-4-(1H-pyrrolo[2,3-b]pyridin-3-yl)pyridin-2-yl]amino}-2,2-dimethylpropyl)-1-methyl-1H-imidazole-4-sulfonamide]
> 8.00 | O=S(=O)(NC1CCCC(Nc2cc(-c3c[nH]c4ncccc34)cc(Cl)n2)C1)c1ccco1 (centres unmarked) [Example 299, N-(3-{[6-chloro-4-(1H-pyrrolo[2,3-b]pyridin-3-yl)pyridin-2-yl]amino}cyclohexyl)furan-2-sulfonamide]
> 8.00 | O=S(=O)(NC1CCCC(Nc2cc(-c3c[nH]c4ncccc34)cc(Cl)n2)C1)c1cccnc1 (centres unmarked) [Example 300, N-(3-{[6-chloro-4-(1H-pyrrolo[2,3-b]pyridin-3-yl)pyridin-2-yl]amino}cyclohexyl)pyridine-3-sulfonamide]
> 8.00 | CC(C)NC(=O)NC1CCCC(Nc2cc(-c3c[nH]c4ncccc34)cc(Cl)n2)C1 (centres unmarked) [Example 301, 1-(3-{[6-chloro-4-(1H-pyrrolo[2,3-b]pyridin-3-yl)pyridin-2-yl]amino}cyclohexyl)-3-propan-2-ylurea]
> 8.00 | CCOC(=O)CNC(=O)NC1CCCC(Nc2cc(-c3c[nH]c4ncccc34)cc(Cl)n2)C1 (centres unmarked) [Example 302, ethyl N-[(3-{[6-chloro-4-(1H-pyrrolo[2,3-b]pyridin-3-yl)pyridin-2-yl]amino}cyclohexyl)carbamoyl]glycinate]
7.00 to 8.00 | O=C(NCC1CCCCC1)NC1CCCC(Nc2cc(-c3c[nH]c4ncccc34)cc(Cl)n2)C1 (centres unmarked) [Example 303, 1-(3-{[6-chloro-4-(1H-pyrrolo[2,3-b]pyridin-3-yl)pyridin-2-yl]amino}cyclohexyl)-3-(cyclohexylmethyl)urea]

— patent publication US8435980B2 (AbbVie Inc., priority 2009, dated 2013)
